Assay results: the NIST ThermoML archive (doi:10.1021/je050514j)

Assay: xn = mol fraction of the nth substance listed
Conditions: 313.15 K, Fluid (supercritical or subcritical phases)

CCOC(C)=O [ethyl acetate] + O=C=O
mass density [kg/m3]
Conditions	1000 kPa	2000 kPa	3000 kPa	4000 kPa	5000 kPa	6000 kPa	7000 kPa	8000 kPa	9000 kPa	10000 kPa
x2 = 0	876.9	878	878.9	880	881	881.9	882.9	883.9	884.9	885.9
x2 = 0.1	880.2	881.4	882.5	883.7	884.7	885.9	887	888	889.1	890.1
x2 = 0.2	–	884.1	885.4	886.7	887.9	889.2	890.4	891.6	892.7	893.9
x2 = 0.3	–	886.2	887.6	889.1	890.5	891.9	893.3	894.6	896	897.2
x2 = 0.4	–	–	888.8	890.6	892.2	893.9	895.4	897	898.6	900
x2 = 0.5	–	–	–	889.9	891.9	893.9	895.8	897.7	899.6	901.4
x2 = 0.6	–	–	–	–	–	890.1	892.6	895	897.4	899.7
x2 = 0.7	–	–	–	–	–	879.2	882.7	886.2	889.4	892.5
x2 = 0.8	–	–	–	–	–	–	858.2	863.7	869	873.9
x2 = 0.9	–	–	–	–	–	–	–	800.6	813	823.7
x2 = 0.95	–	–	–	–	–	–	–	–	745.6	767.4
